Measured values as given in paper PMC4501059, “Responding to the challenge of untreatable gonorrhea: ETX0914, a first-in-class agent with a distinct mechanism-of-action against bacterial Type II topoisomerases” (Scientific Reports, 2015).
In brackets after ≈: the same amount, converted by molar mass. Several values for one entry are separate records, joined by “and”; a condition that tells them apart may be missing. Identical values can stand only once.

Key:
USA300 NRS384 = experiment: MIC (modal, CLSI broth microdilution); assay type: cell-based, S. aureus; details: Staphylococcus aureus, read-out: Modal MIC
[1] = Single dose pharmacokinetics, rat; assay type: in vivo; details: Han-Wister rat (male)
Procedure: (§1) AZD0914 was analyzed in mouse, rat, dog, monkey plasma using a qualified method which was later validated for human plasma analysis. The validated human method is described below and is representative of the approach taken in other species. AZD0914 was determined in human plasma prepared with K2EDTA as an anticoagulant. AZD0914 and an internal standard (^13C2, ^15N2 AZD0914) were extracted from plasma with tert- butyl methyl ether. After evaporating to dryness under a stream of nitrogen, the residue was reconstituted and quantitated by reverse phase HPLC-MS/MS against a standard curve from 1.00 to 5000 ng/ml. Separation was achieved using a gradient which went from 55% to 85% methanol:acetonitrile (1:1) containing 0.2% formic acid as mobile phase B and 0.2% formic acid in water as mobile phase A at a flow rate of 0.60 ml/min through a Phenomonex Gemini C18 column (50 x 2.0 mm column, […]) heated using a Shimadzu CTO-20AC set to 40 °C. AZD0914 was detected in multiple reaction monitoring (MRM) mode by positive ion electrospray ionization using a Sciex API5500 (Toronto, Canada) mass spectrometer. The ion spray voltage was set to 5500 V and turboionspray temperature was 650 °C. AZD0914 was quantitated using the MRM transition 488.2 → 348.2 using a collision energy of 29 eV. The internal standard, (^13C2, ^15N2 AZD0914), was monitored using identical conditions except for the MRM transition of 492.2 → 348.2.

[2] = system: mammalian myeloid cell lines; experiment: myeloid cytotoxicity (growth inhibition); assay type: cell-based; details: read-out: Myeloid IC50
Procedure: (§2) In vitro toxicology. Experiments for assessing micronuclei in mouse lymphoma cells^19 myeloid cytotoxicity^20 and erythroid cytotoxicity^21 were performed as described previously.

[3] = plasma protein binding, mouse; details: in vitro at 1-50 µM
[4] = system: N. gonorrhoeae ARC4676 (QR); assay type: cell-based
hCav1.2 = hCav1.2 (Homo sapiens, UniProt Q13936); experiment: In vitro ion channel function; assay type: cell-based; details: hCav1.2 IC50, Ca^2+ entry into excitable cells
Source text: Supplement srep11827-s1.doc, table 3 | column: Table S2: In vitro ion channel function IC50 (µM)

[5] = system: Coagulase-negative Staphylococci; parameters: method as in ref 2 (supplement); details: 1923 tested; ref 2 (supplement); cited from earlier work
[6] = plasma protein binding, rat; assay type: in vitro ADME; details: in vitro at 1-50 µM
Source text: (§3) Supplement srep11827-s1.doc, table 4 | column: Han-Wister rat (male)

Streptococcus agalactiae = system: Streptococcus agalactiae; parameters: method as in ref 2 (supplement); details: 441 tested; ref 2 (supplement); cited from earlier work
Mycoplasma pneumoniae = system: Mycoplasma pneumoniae; parameters: method as in ref 3 (supplement); details: 21 tested; ref 3 (supplement); cited from earlier work
N. gonorrhoeae = experiment: clinical PK/PD magnitude, gonococcal infection
[7] = hepatocyte intrinsic clearance; assay type: in vitro ADME; details: male, Han-Wister, rat hepatocytes
Source text: as §3

[8] = hepatocyte intrinsic clearance; assay type: in vitro ADME; details: male, Beagle, dog hepatocytes
Source text: Supplement srep11827-s1.doc, table 4 | column: Beagle dog (male)

Haemophilus influenzae = system: Haemophilus influenzae; parameters: method as in ref 2 (supplement); details: 352 tested; ref 2 (supplement); cited from earlier work
DNA gyrase or Topo IV = experiment: Malachite Green based ATPase assays; assay type: biochemical
Mycoplasma genitalium = system: Mycoplasma genitalium; parameters: method as in ref 3 (supplement); details: 11 tested; ref 3 (supplement); cited from earlier work
[9] = CV dog telemetry (single dose, iv); details: for Cmax: plasma
[10] = system: mammalian erythroid cell lines; experiment: erythroid cytotoxicity (growth inhibition); assay type: cell-based; details: read-out: Erythroid IC50
Procedure: as §2

[11] = 28 day oral toxicology study, dog; details: for Salient Pathology Findings: 1 month dog (po)
Dog pharmacokinetics = assay type: in vivo, Beagle dog
Procedure: as §1

S. aureus Topo IV = S. aureus Topo IV (Staphylococcus aureus, UniProt P0C1S7+P0C1U9); experiment: S. aureus Topo IV cleaved complex ligation assay; assay type: biochemical; details: free Mg2+ 0.06 μM to 8 mM
Procedure: Reactions were quenched by adding 3 μl of 2% SDS and 1 mg/ml proteinase K (30 min at 37 °C). DNA loading dye (4 μl) was added and DNA products were quantified by gel electrophoresis. Samples (25 μl) were loaded into wells of 1% agarose gels buffered with 40 mM Tris, 20 mM acetic acid, and 1 mM EDTA at pH 8.4 and run for 18 to 20 hours at 30V, or 3 hours at 60V including 1 µg/ml ethidium bromide in gel running buffer. DNA bands from gel electrophoresis were visualized by staining with ethidium bromide (5 µg/ml in TAE) after electrophoresis. DNA was quantified from digital images acquired during UV transillumination using AlphaEase software (Genetic Technologies). Background from control wells without inhibitor was subtracted.

[12] = hepatocyte intrinsic clearance; details: human, hepatocytes
MRSA ATCC33591 = experiment: MIC (modal, CLSI broth microdilution); assay type: cell-based, S. aureus; details: Staphylococcus aureus, read-out: Modal MIC
USA100 NRS382 = experiment: MIC (modal, CLSI broth microdilution); assay type: cell-based, S. aureus; details: Staphylococcus aureus, read-out: Modal MIC
[13] = both, beagle, dog, plasma, po, 100 mg/kg/day
[14] = both, beagle, dog, plasma, po, 200 mg/kg/day
[15] = both, beagle, dog, plasma, po, 500 mg/kg/day

Chain of hCav1.2 (P54289 25-1103): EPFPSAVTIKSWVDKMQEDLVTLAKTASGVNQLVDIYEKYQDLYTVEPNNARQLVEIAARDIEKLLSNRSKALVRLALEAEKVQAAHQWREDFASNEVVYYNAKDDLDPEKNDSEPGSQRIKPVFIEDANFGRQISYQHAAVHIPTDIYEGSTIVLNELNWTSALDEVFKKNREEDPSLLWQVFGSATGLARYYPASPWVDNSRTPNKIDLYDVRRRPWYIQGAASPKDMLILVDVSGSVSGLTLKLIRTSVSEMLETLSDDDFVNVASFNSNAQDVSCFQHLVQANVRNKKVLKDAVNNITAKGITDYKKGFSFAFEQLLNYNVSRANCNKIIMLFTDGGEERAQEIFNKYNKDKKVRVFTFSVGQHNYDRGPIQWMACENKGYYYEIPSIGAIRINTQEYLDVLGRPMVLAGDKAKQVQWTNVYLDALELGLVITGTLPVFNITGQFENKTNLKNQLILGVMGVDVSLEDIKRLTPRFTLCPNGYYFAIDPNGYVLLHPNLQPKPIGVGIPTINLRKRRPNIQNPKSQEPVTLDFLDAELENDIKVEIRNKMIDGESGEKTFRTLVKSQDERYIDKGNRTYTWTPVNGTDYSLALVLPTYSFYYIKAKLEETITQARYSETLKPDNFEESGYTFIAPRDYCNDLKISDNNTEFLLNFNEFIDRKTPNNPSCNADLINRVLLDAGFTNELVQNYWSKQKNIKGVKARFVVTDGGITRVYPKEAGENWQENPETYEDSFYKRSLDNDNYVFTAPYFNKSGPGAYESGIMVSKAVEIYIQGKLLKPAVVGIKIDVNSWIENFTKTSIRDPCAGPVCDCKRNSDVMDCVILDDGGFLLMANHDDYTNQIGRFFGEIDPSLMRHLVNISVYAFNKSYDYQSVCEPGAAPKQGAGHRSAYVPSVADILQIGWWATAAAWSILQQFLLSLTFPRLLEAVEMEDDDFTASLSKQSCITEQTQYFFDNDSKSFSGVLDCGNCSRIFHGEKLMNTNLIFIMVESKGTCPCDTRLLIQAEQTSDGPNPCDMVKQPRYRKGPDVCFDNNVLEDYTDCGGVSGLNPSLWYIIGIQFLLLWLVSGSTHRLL
Chain of hCav1.2 (Q13936 whole entry): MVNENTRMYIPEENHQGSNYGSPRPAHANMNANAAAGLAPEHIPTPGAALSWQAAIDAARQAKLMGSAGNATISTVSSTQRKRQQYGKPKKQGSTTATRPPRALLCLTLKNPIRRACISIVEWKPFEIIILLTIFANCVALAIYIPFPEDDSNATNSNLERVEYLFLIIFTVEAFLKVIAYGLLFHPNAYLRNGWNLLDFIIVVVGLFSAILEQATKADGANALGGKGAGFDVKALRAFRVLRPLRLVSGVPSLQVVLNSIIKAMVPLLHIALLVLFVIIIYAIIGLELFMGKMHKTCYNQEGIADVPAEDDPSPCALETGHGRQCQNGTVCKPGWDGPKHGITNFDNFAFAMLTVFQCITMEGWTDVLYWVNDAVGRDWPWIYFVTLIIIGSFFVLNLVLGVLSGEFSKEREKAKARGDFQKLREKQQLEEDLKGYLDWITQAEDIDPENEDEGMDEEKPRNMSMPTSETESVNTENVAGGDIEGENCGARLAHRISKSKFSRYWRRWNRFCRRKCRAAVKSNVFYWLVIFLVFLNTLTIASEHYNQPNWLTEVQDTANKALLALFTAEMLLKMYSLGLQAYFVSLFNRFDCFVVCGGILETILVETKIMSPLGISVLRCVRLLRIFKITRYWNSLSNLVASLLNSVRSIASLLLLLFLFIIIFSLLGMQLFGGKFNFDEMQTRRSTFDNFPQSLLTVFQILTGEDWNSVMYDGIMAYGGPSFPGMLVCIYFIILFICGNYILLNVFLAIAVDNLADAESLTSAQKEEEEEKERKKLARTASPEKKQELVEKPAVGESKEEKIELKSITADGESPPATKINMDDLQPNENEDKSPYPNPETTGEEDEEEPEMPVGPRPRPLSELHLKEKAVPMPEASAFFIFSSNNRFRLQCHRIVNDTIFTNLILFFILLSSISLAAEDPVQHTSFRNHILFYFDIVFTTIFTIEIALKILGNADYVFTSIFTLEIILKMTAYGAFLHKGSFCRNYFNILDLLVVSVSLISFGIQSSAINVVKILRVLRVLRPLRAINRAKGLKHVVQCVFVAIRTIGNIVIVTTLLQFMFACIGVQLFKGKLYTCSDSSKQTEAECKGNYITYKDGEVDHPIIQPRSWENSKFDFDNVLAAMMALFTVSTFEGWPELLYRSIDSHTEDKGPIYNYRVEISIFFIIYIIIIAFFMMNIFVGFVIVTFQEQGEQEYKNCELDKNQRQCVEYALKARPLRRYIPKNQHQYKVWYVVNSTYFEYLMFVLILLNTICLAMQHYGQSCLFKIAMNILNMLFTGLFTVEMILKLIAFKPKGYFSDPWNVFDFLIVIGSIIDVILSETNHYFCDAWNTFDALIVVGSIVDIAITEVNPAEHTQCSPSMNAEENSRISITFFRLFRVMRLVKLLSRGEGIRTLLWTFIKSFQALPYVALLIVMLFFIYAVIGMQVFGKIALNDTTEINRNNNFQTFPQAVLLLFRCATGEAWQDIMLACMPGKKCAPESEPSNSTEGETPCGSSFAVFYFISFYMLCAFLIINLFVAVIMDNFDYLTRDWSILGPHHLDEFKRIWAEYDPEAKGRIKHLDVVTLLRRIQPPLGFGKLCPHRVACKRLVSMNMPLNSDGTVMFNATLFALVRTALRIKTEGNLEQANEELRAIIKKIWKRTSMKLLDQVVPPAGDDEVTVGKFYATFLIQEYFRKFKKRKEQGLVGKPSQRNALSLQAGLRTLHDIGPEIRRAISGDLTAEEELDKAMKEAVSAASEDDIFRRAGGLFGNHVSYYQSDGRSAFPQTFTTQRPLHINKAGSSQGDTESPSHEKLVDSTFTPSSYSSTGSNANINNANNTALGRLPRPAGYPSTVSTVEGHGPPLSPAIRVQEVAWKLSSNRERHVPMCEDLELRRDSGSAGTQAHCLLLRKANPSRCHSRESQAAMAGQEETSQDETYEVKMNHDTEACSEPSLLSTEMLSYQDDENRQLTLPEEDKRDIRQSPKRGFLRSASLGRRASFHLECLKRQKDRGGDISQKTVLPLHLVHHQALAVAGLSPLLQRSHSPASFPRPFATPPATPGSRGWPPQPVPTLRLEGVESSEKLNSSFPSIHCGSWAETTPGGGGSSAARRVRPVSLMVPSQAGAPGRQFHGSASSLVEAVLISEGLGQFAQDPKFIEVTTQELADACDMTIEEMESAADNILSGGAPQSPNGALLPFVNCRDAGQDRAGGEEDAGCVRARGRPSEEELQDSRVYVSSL
Chain of hCav1.2 (Q08289 whole entry, further chain): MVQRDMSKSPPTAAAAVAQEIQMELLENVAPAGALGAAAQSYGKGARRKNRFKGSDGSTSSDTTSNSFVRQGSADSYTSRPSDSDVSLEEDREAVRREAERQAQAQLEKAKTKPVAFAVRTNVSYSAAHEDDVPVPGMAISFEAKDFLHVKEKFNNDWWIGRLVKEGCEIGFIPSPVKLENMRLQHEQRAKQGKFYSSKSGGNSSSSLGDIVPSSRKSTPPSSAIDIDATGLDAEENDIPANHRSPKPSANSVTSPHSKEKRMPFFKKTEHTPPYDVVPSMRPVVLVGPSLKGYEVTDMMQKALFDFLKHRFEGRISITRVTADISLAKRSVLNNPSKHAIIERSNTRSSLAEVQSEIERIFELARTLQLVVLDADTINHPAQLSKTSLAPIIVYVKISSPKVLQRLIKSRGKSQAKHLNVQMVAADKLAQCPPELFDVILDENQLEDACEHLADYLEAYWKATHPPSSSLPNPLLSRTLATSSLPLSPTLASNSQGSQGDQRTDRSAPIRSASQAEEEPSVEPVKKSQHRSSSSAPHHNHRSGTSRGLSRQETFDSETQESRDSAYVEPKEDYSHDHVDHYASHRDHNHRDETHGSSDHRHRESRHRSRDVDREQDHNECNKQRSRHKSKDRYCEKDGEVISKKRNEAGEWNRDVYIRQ

`C[C@@H]1CN2c3c(cc4c(N5C(=O)OC[C@@H]5C)noc4c3F)CC3(C(=O)NC(=O)NC3=O)[C@H]2[C@H](C)O1` [ETX0914] gave an MIC (USA300 NRS384) of 0.25 µg/mL (≈ 0.513 µM), a Ka [1] of 1.6 h⁻¹ and a clearance ([1]; plasma, IV 10 mg/kg, read-out: Clp (IV)) of 22 mL/min/kg. It also gave a half-life ([1]; plasma, IV 10 mg/kg, read-out: T1/2 (IV) (converted)) of 42 min, a Vd ([1]; plasma, IV 10 mg/kg, read-out: Vss (IV)) of 1.2 L/kg and a bioavailability ([1]; plasma, IV 10 / PO 10 mg/kg) of 34%. It also gave a Cmax ([1]; plasma, PO 10 mg/kg) of 1700 nM, a half-life ([1]; plasma, PO 10 mg/kg, read-out: T1/2 (PO) (converted)) of 108 min and an IC50 [2] of over 100 µM. The “PPB (%free)” value [3] was 22.1 %free, the “PPB (%free)” value ([3]; listed as AZD0914) was 22.1±0.3 %free and the “MIC: N. gonorrhoeae ARC4676 (QR)” value [4] was 0.125 µg/mL (≈ 0.256 µM). The IC50 (hCav1.2) was 326 µM, the MIC90 [5] was 0.25^2 µg/ml and the “MIC Range” value [5] was 0.015 to 2.0 µg/mL. The “PPB (%free)” value [6] was 19.1±1.1 %free, the MIC90 (Streptococcus agalactiae) was 0.25^2 µg/ml and the “MIC Range” value (Streptococcus agalactiae) was 0.03 to 0.5 µg/mL. The solubility (physchem) was 390 µM (≈ 190 µg/mL), the MIC90 (Mycoplasma pneumoniae) was 1.0^3 µg/ml and the “MIC Range” value (Mycoplasma pneumoniae) was 0.5 to 1.0 µg/mL. The “predicted efficacious mean AUC in humans” value (N. gonorrhoeae) was 49 µg·h/mL, the hepatocyte CLint at 1 µM [7] was 10 µL/min/1e6 cells and the hepatocyte CLint at 1 µM [8] was 3.8 µL/min/1e6 cells. The MIC90 (Haemophilus influenzae) was 0.5^2 µg/ml, the “MIC Range” value (Haemophilus influenzae) was 0.03 to 2.0 µg/mL and the “inhibition of ATPase activity” value (DNA gyrase or Topo IV) was “lack of inhibition of ATPase activity”. The MIC90 (Mycoplasma genitalium) was 1.0^3 µg/ml, the “MIC Range” value (Mycoplasma genitalium) was 0.5 to 1.0 µg/mL and the NOEL ([9]; CV dog telemetry, single dose, iv) was 50 mg/kg/day. For the same molecule, the cardiovascular effects ([9]; IV telemetry dog study, 100 mg/kg) was “decreases in blood pressure, contractility and PR interval and an increase in the heart rate”, the “other ECG intervals” value ([9]; dog) was “no changes to other ECG intervals including QTc or QRS” and the Cmax ([9]; dog, iv, 50 mg/kg) was 63 µg/mL. The Cmax ([9]; dog, iv, 100 mg/kg) was 160 µg/mL, the “Salient Pathology Findings” value ([9]; single dose iv, 100 mg/kg) was “Emesis Increase in cardiac contractility\relaxation and heart rate Decrease in systolic & diastoloic blood pressure Orthostatic hypertension” and the IC50 [10] was over 100 µM. The “Salient Pathology Findings” value ([11]; 200 mg/kg/day) was “Testes tubular degeneration partially reversible 3 months post dosing”, the “Salient Pathology Findings” value ([11]; 500 mg/kg/day) was “As above plus: Epididymis cellular debris Caecum/illium/rectum necrosis” and the NOAEL at 28 days ([11]; both, beagle, dog, in vivo, po) was 100 mg/kg and 100 mg/kg/day. For the same molecule, the Cmax ([11]; both, beagle, dog, in vivo, po, 100 mg/kg) was 85 µg/mL, the AUC [11, 13] was 870 ± 240 µg·h/mL and the Cmax [11, 13] was 90 ± 22 µg/mL. The AUC [11, 14] was 2160 ± 460 µg·h/mL, the Cmax [11, 14] was 210 ± 18 µg/mL and the AUC [11, 15] was 2780 ± 1140 µg·h/mL. For the same molecule, the Cmax [11, 15] was 220 ± 94 µg/mL, the “haematology or platelet count at the NOAEL” value ([11]; dog) was “no significant changes in haematology or platelet count” and the “finding at highest dose tested” value ([11]; dog, 500 mg/kg/day) was “tachycardia was observed”. The tolerated dose ([11]; dog, oral gavage, 28 days) was 500 mg/kg/day, the Ka (Dog pharmacokinetics; Beagle dog (male)) was 1.2 h⁻¹ and the “Dog F” value (Dog pharmacokinetics; beagle, dog, plasma) was 71%. For the same molecule, the clearance (Dog pharmacokinetics; beagle, dog, plasma) was 4 mL/min/kg, the clearance (Dog pharmacokinetics; plasma, Beagle dog (male), IV 2.5 mg/kg, read-out: Clp (IV)) was 4 mL/min/kg and the half-life (Dog pharmacokinetics; plasma, Beagle dog (male), IV 2.5 mg/kg, read-out: T1/2 (IV) (converted)) was 180 min. It also gave a Vd (Dog pharmacokinetics; plasma, Beagle dog (male), IV 2.5 mg/kg, read-out: Vss (IV)) of 0.8 L/kg, a bioavailability (Dog pharmacokinetics; plasma, Beagle dog (male), IV 2.5 / PO 5 mg/kg) of 71% and a Cmax (Dog pharmacokinetics; plasma, Beagle dog (male), PO 5 mg/kg) of 7.1 µM. The half-life (Dog pharmacokinetics; plasma, Beagle dog (male), PO 5 mg/kg, read-out: T1/2 (PO) (converted)) was 186 min, the “re-ligation of inhibitor-induced cleaved DNA on removal of Mg2+” value (S. aureus Topo IV) was “No ligation is observed” and the hepatocyte CLint [12] was 1 µL/min/1e6 cells. For the same molecule, the MIC (MRSA ATCC33591) was 0.125 µg/mL (≈ 0.256 µM) and the MIC (USA100 NRS382) was 0.125 µg/mL (≈ 0.256 µM).
